pIC50: −log10 of the molar value.
Columns and labels:
human recombinant HDAC6 = target: T1, human recombinant HDAC6 (Homo sapiens, UniProt Q9UBN7); test: HDAC6 enzyme activity inhibition (HDAC Fluorimetric Drug Discovery Kit); type: biochemical; conditions: for HDAC6 selectivity (fold): HDAC1 IC50 / HDAC6 IC50; for pIC50: human recombinant HDAC6, IC50 calculated with GraphPad Prism
T1 construct: purchased Calbiochem Inc. 382180
T1 sequence (Q9UBN7 1-1215): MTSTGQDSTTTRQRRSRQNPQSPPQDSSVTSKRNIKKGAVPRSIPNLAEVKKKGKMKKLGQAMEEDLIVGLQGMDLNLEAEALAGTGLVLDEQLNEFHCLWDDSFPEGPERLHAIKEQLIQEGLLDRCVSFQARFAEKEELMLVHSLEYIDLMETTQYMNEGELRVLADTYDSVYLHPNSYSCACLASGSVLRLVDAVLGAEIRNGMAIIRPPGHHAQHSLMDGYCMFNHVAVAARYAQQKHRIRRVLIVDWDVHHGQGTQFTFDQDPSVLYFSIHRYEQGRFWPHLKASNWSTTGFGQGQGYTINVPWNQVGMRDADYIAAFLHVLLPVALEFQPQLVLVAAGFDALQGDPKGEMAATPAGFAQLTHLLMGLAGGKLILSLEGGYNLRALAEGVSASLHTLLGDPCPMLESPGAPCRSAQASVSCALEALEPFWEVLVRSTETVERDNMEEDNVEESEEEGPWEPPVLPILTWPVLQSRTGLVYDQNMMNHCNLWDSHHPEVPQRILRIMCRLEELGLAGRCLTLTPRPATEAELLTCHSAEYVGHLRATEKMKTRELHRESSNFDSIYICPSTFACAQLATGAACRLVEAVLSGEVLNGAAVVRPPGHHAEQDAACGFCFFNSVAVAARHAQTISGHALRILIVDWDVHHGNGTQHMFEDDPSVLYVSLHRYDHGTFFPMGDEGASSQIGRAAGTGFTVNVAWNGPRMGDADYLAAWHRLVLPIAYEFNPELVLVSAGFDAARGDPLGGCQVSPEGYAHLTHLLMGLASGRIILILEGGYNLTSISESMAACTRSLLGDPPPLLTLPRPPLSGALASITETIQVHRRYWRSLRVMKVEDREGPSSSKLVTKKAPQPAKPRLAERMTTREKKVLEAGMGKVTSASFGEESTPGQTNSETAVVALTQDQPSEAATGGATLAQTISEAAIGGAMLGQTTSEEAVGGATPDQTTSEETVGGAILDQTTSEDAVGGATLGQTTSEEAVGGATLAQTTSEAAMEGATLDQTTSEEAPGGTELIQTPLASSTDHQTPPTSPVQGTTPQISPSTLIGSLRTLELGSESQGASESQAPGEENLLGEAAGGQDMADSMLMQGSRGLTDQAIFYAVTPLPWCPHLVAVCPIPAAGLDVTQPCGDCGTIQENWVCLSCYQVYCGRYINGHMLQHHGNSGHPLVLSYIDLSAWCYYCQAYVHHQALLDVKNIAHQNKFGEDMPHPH
Procedure, shortened: (§1)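 Each isoform is run in the same format: compound dilutions (5-fold steps), 10 μM substrate, […] enzyme, one hour at 30° C, then 30 minutes with developer before fluorescence readout.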

human recombinant HDAC1 = target: T2, human recombinant HDAC1 (Homo sapiens, UniProt Q13547); test: HDAC1 enzyme activity inhibition (HDAC Fluorimetric Drug Discovery Kit); type: biochemical; conditions: human recombinant HDAC1; IC50 calculated with GraphPad Prism; read-out: HDAC1
T2 construct: purchased Enzo Life Science, Inc. BML-SE456
Procedure, shortened: as §1

T2 sequence (Q13547 whole entry): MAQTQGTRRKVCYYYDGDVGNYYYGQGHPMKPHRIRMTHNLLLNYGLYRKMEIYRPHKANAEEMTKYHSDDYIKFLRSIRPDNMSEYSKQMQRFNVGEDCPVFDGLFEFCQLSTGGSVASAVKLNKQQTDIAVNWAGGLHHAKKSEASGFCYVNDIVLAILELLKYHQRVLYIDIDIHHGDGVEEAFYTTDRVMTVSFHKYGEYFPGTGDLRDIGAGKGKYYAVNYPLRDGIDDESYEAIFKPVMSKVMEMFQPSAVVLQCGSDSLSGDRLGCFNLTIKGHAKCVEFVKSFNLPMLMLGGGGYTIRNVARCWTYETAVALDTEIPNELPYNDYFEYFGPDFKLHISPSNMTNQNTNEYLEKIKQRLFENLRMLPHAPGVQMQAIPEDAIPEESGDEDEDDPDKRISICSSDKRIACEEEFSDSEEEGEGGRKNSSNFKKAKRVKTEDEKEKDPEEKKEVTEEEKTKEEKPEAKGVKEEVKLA

For `CN(C)CCC(=O)Nc1cccc(-c2cn(Cc3ccc(-c4nnc(C(F)F)o4)cn3)nn2)c1` [Compound 4229, N-(3-(1-((5-(5-(difluoromethyl)-1,3,4-oxadiazol-2-yl)pyridin-2-yl)methyl)-1H-1,2,3-triazol-4-yl)phenyl)-3-(dimethylamino)propanamide], the “HDAC6 selectivity (fold)” value (human recombinant HDAC6) was 1742 fold, the pIC50 (human recombinant HDAC6) was 7.54 and the pIC50 (human recombinant HDAC1) was < 4.30.

For `CN(C)CC(=O)Nc1cccc(-c2cn(Cc3ccc(-c4nnc(C(F)F)o4)cn3)nn2)c1` [Compound 4230, N-(3-(1-((5-(5-(difluoromethyl)-1,3,4-oxadiazol-2-yl)pyridin-2-yl)methyl)-1H-1,2,3-triazol-4-yl)phenyl)-2-(dimethylamino)acetamide], the “HDAC6 selectivity (fold)” value (human recombinant HDAC6) was 2173 fold, the pIC50 (human recombinant HDAC6) was 7.64 and the pIC50 (human recombinant HDAC1) was < 4.30.

For `CN(C)C(C)(C)C(=O)Nc1cccc(-c2cn(Cc3ccc(-c4nnc(C(F)F)o4)cn3)nn2)c1` [Compound 4231, N-(3-(1-((5-(5-(difluoromethyl)-1,3,4-oxadiazol-2-yl)pyridin-2-yl)methyl)-1H-1,2,3-triazol-4-yl)phenyl)-2-(dimethylamino)-2-methylpropanamide], the “HDAC6 selectivity (fold)” value (human recombinant HDAC6) was 914 fold, the pIC50 (human recombinant HDAC6) was 7.26 and the pIC50 (human recombinant HDAC1) was < 4.30.

With `FC(F)(F)c1nnc(-c2ccc(Cn3nnc(-c4cccs4)n3)nc2)o1` [Compound 4233] the “HDAC6 selectivity (fold)” value (human recombinant HDAC6) was 3846 fold, the pIC50 (human recombinant HDAC6) was 7.89 and the pIC50 (human recombinant HDAC1) was < 4.30.

In the case of `FC(F)(F)c1nnc(-c2ccc(Cn3nnc(-c4ccccc4)n3)nc2)o1` [Compound 4235], the “HDAC6 selectivity (fold)” value (human recombinant HDAC6) was 290 fold, the pIC50 (human recombinant HDAC6) was 6.76 and the pIC50 (human recombinant HDAC1) was < 4.30.

In the case of `OC1(c2cn(Cc3ccc(-c4nnc(C(F)F)o4)cn3)nn2)COC1` [Compound 4276, 3-(1-((5-(5-(difluoromethyl)-1,3,4-oxadiazol-2-yl)pyridin-2-yl)methyl)-1H-1,2,3-triazol-4-yl)oxetan-3-ol], the “HDAC6 selectivity (fold)” value (human recombinant HDAC6) was 143 fold, the pIC50 (human recombinant HDAC6) was 6.46 and the pIC50 (human recombinant HDAC1) was < 4.30.

`OC1(c2cn(Cc3ccc(-c4nnc(C(F)F)o4)cn3)nn2)CCOC1` (stereo not drawn) [Compound 4277, 3-(1-((5-(5-(difluoromethyl)-1,3,4-oxadiazol-2-yl)pyridin-2-yl)methyl)-1H-1,2,3-triazol-4-yl)tetrahydrofuran-3-ol] was tested, and the “HDAC6 selectivity (fold)” value (human recombinant HDAC6) was 212 fold, the pIC50 (human recombinant HDAC6) was 6.63 and the pIC50 (human recombinant HDAC1) was < 4.30.

In the case of `OC1(c2cn(Cc3ccc(-c4nnc(C(F)F)o4)cc3F)nn2)COC1` [Compound 4278, 3-(1-(4-(5-(difluoromethyl)-1,3,4-oxadiazol-2-yl)-2-fluorobenzyl)-1H-1,2,3-triazol-4-yl)oxetan-3-ol], the “HDAC6 selectivity (fold)” value (human recombinant HDAC6) was 160 fold, the pIC50 (human recombinant HDAC6) was 6.51 and the pIC50 (human recombinant HDAC1) was < 4.30.

With `OC1(c2cn(Cc3ccc(-c4nnc(C(F)F)o4)cc3F)nn2)CCOC1` (stereo not drawn) [Compound 4279, 3-(1-(4-(5-(difluoromethyl)-1,3,4-oxadiazol-2-yl)-2-fluorobenzyl)-1H-1,2,3-triazol-4-yl)tetrahydrofuran-3-ol] the “HDAC6 selectivity (fold)” value (human recombinant HDAC6) was 182 fold, the pIC50 (human recombinant HDAC6) was 6.56 and the pIC50 (human recombinant HDAC1) was < 4.30.

In the case of `FC(F)c1nnc(-c2ccc(Cn3cc(C4(F)COC4)nn3)nc2)o1` [Compound 4280, 2-(difluoromethyl)-5-(6-((4-(3-fluorooxetan-3-yl)-1H-1,2,3-triazol-1-yl)methyl)pyridin-3-yl)-1,3,4-oxadiazole], the “HDAC6 selectivity (fold)” value (human recombinant HDAC6) was 292 fold, the pIC50 (human recombinant HDAC6) was 6.77 and the pIC50 (human recombinant HDAC1) was < 4.30.

In the case of `FC(F)c1nnc(-c2ccc(Cn3cc(C4(F)CCOC4)nn3)nc2)o1` (stereo not drawn) [Compound 4281, 2-(difluoromethyl)-5-(6-((4-(3-fluorotetrahydrofuran-3-yl)-1H-1,2,3-triazol-1-yl)methyl)pyridin-3-yl)-1,3,4-oxadiazole], the “HDAC6 selectivity (fold)” value (human recombinant HDAC6) was 412 fold, the pIC50 (human recombinant HDAC6) was 6.92 and the pIC50 (human recombinant HDAC1) was < 4.30.

With `Fc1cc(-c2nnc(C(F)F)o2)ccc1Cn1cc(C2(F)COC2)nn1` [Compound 4282, 2-(difluoromethyl)-5-(3-fluoro-4-((4-(3-fluorooxetan-3-yl)-1H-1,2,3-triazol-1-yl)methyl)phenyl)-1,3,4-oxadiazole] the “HDAC6 selectivity (fold)” value (human recombinant HDAC6) was 209 fold, the pIC50 (human recombinant HDAC6) was 6.62 and the pIC50 (human recombinant HDAC1) was < 4.30.

Source: patent US20230257372A1 (CHONG KUN DANG PHARMACEUTICAL CORP., priority 2020, published 2023)
